SMILES strings stand for the structures. Counter-ions that a name gives are not always drawn.

In the assay the target is T1, human GR (glucocorticoid receptor) (Homo sapiens, UniProt P04150).
T1 construct: expressed in transfected cells; host or cells: 293 cells
T1 sequence (P04150 1-777): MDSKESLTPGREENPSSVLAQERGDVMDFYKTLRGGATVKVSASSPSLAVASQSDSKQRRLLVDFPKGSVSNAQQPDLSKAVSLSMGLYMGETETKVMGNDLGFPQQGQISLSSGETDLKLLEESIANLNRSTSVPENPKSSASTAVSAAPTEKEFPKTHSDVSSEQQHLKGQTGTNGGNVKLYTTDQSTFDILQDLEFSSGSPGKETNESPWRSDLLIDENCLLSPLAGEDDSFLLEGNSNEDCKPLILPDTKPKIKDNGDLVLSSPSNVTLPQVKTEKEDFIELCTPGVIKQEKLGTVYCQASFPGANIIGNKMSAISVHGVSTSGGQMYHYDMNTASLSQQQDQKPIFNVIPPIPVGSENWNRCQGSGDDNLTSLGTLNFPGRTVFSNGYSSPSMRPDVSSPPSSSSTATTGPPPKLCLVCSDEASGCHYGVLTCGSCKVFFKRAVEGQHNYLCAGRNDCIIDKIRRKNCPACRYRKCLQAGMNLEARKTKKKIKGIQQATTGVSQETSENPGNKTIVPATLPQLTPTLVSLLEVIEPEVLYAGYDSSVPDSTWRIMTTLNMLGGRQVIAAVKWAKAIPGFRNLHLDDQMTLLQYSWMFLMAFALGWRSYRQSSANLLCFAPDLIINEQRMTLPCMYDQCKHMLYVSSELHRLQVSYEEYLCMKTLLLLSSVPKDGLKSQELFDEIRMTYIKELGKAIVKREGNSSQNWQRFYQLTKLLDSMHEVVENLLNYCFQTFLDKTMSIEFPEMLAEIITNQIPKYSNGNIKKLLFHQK
Put plainly: Alternative Binding Assay Protocol (Method 2), GR. The note with it: 293-GR lysate, 3H-dexamethasone. The protocol: Cell lysates from 293 cells overexpressing human GR (glucocorticoid receptor), AR (androgen receptor), MR (mineralocorticoid receptor) or PR (progesterone receptor) are used for competition binding assays to determine Ki values for test compounds. Briefly, competition binding assays are run in a buffer containing 20 mM Hepes, pH 7.6, 0.2 mM EDTA, 75 mM NaCl, 1.5 mM MgCl2, 20% glycerol, 20 mM sodium molybdate, 0.2 mM DTT, 20 ug/ml aprotinin and 20 ug/ml leupeptin, using either 0.3 nM ^3H-dexamethasone for GR binding, 0.36 nM ^3H-methyltrienolone for AR binding, 0.25 nM ^3H-aldosterone for MR binding, or 0.29 nM ^3H-methyltrienolone for PR binding, and either 20 ug 293-GR lysate, 22 ug 293-AR lysate, 20 ug 293-MR lysate or 40 ug 293-PR lysate per well. Competing compounds are added at various concentrations in half-log increments. Non-specific binding is determined in the presence of 500 nM dexamethasone for GR binding, 500 nM aldosterone for MR binding, or 500 nM methyltrienolone for AR and PR binding. The binding reaction (140 μl) is incubated for overnight at 4° C., then 70 μl of cold charcoal-dextran buffer (containing per 50 ml of assay buffer, 0.75 g of charcoal and 0.25 g of dextran) is added to each reaction. Plates are mixed 8 minutes on an orbital shaker at 4° C. Plates are then centrifuged at 3,000 rpm at 4° C. for 10 minutes. An aliquot of 120 μl of the mix is transferred to another 96-well plate and 175 μl of Wallac Optiphase “Hisafe 3” scintillation fluid is added to each well. Plates are sealed and shaken vigorously on an orbital shaker. After an incubation of 2 hrs, plates are read in a Wallac Microbeta counter. The data is used to calculate an IC50 and % Inhibition at 10 μM. The Kd for ^3H-dexamethasone for GR binding, ^3H-methyltrienolone for AR binding, ^3H-aldosterone for MR binding, or ^3H-methyltrienolone for PR binding, is determined by saturation binding. The IC50 values for compounds are converted to Ki using Cheng-Prusoff equation and the Kd determined by saturation binding assay.
The compound `CC(C)(CN1CCOCC1)n1c(=O)[nH]c2cc(/C=C3\c4ccccc4COc4cc(F)ccc43)ccc21` [Example 1, 1-(1,1-Dimethyl-2-morpholin-4-yl-ethyl)-5-(3-fluoro-6H-dibenzo[b,e]oxepin-11-ylidenemethyl)-1,3-dihydro-benzoimidazol-2-one, E isomer] returned a Ki of under 1000 nM.
Turning to `CN1CCC(n2c(=O)[nH]c3cc(/C=C4/c5ccc(F)cc5OCc5c(F)cccc54)ccc32)CC1` [Example 2, 5-(3,7-Difluoro-6H-dibenzo[b,e]oxepine-11-ylidenemethyl)-1-(1-methyl-piperidin-4-yl)-1,3-dihydro-benzoimidazol-2-one, E-isomer], the inhibitory constant (Ki) is under 1000 nM.
In the case of `CN1CCC(n2c(=O)[nH]c3cc(/C=C4\c5ccccc5COc5cc(F)ccc54)ccc32)CC1` [Example 3, 5-(3-Fluoro-6H-dibenzo[b,e]oxepin-11-ylidenemethyl)-1-(1-methyl-piperidin-4-yl)-1,3-dihydro-benzoimidazol-2-one, E isomer] it was under 500 nM; in that of `CN1CCC(n2c(=O)[nH]c3cc(/C=C4\c5ccc(F)cc5COc5cc(F)ccc54)ccc32)CC1` [Example 4, 5-(3,8-Difluoro-6H-dibenzo[b,e]oxepin-11-ylidenemethyl)-1-(1-methyl-piperidin-4-yl) -1,3-dihydro-benzoimidazol-2-one, E isomer], under 1000 nM.
Take `CCN1CC[C@@H](n2c(=O)[nH]c3cc(/C=C4\c5ccc(F)cc5COc5cc(F)ccc54)ccc32)C1` [Example 5, 5-(3,8-Difluoro-6H-dibenzo[b,e]oxepin-11-ylidenemethyl)-1-(1-ethyl-pyrrolidin-3-yl) -1,3-dihydro-benzoimidazol-2-one, HOAc salt, E isomer, chiral]: the Ki was under 500 nM.
For the compound `CN1CCN(CCCn2c(=O)[nH]c3cc(/C=C4\c5ccccc5COc5cc(F)ccc54)ccc32)CC1` [Example 7], the Ki is under 500 nM.
With `CN1CCN(CCn2c(=O)[nH]c3cc(/C=C4\c5ccccc5COc5cc(F)ccc54)ccc32)CC1` [Example 8], the Ki is under 500 nM.
The figure for `O=c1[nH]c2cc(/C=C3\c4ccccc4COc4cc(F)ccc43)ccc2n1[C@H]1CCNC1` [Example 9] is under 500 nM; for `C[C@H](CN1CCOCC1)n1c(=O)[nH]c2cc(/C=C3\c4ccccc4COc4cc(F)ccc43)ccc21` [Example 10] it is under 500 nM; for `C[C@@H](CN1CCOCC1)n1c(=O)[nH]c2cc(/C=C3\c4ccccc4COc4cc(F)ccc43)ccc21` [Example 11] it is under 500 nM.
In the case of `O=c1[nH]c2cc(/C=C3\c4ccccc4COc4cc(F)ccc43)ccc2n1C1CCNCC1` [Example 12] it was under 1000 nM; in that of `C[C@@H]1CN(CCn2c(=O)[nH]c3cc(/C=C4\c5ccccc5COc5cc(F)ccc54)ccc32)C[C@H](C)O1` [Example 13], under 500 nM.
In the case of `O=c1[nH]c2cc(/C=C3\c4ccccc4COc4cc(F)ccc43)ccc2n1CCN1CCNCC1` [Example 14] it was under 500 nM; in that of `O=c1[nH]c2cc(/C=C3\c4ccccc4COc4cc(F)ccc43)ccc2n1C1CCNC1` (stereo not shown) [Example 15], under 500 nM; in that of `O=c1[nH]c2cc(/C=C3\c4ccccc4COc4cc(F)ccc43)ccc2n1C1CCNC1` (stereo not shown) [Example 16], under 500 nM.
Take `O=c1[nH]c2cc(/C=C3\c4ccccc4COc4cc(F)ccc43)ccc2n1C1CNC1` [Example 17]: the Ki is under 500 nM.
In turn, `O=c1[nH]c2cc(/C=C3\c4ccccc4COc4cc(F)ccc43)ccc2n1C[C@@H]1CCCN1` [Example 18] had a Ki of under 1000 nM.
For the compound `O=c1[nH]c2cc(/C=C3\c4ccccc4COc4cc(F)ccc43)ccc2n1C[C@H]1CCCN1` [Example 19], the Ki is under 1000 nM.
For the compound `CN1CCN(CCn2c(=O)[nH]c3cc(/C=C4\c5ccc(F)cc5COc5cc(F)ccc54)ccc32)CC1` [Example 20], the Ki was under 500 nM.
In turn, `O=c1[nH]c2cc(/C=C3\c4ccc(F)cc4COc4cc(F)ccc43)ccc2n1CCN1CCCC1` [Example 21] showed an inhibition constant Ki of under 500 nM.
`C[C@H](CN1CCOCC1)n1c(=O)[nH]c2cc(/C=C3\c4ccc(F)cc4COc4cc(F)ccc43)ccc21` [Example 22] came in with a Ki of under 500 nM.
As to `C[C@@H](CN1CCOCC1)n1c(=O)[nH]c2cc(/C=C3\c4ccc(F)cc4COc4cc(F)ccc43)ccc21` [Example 23], the Ki was under 1000 nM.
The compound `CC(C)(CN1CCOCC1)n1c(=O)[nH]c2cc(/C=C3\c4ccc(F)cc4COc4cc(F)ccc43)ccc21` [Example 24] gave a Ki of under 1000 nM.
Take `C[C@@H]1CN(CCn2c(=O)[nH]c3cc(/C=C4\c5ccc(F)cc5COc5cc(F)ccc54)ccc32)C[C@H](C)O1` [Example 25]: the Ki is under 500 nM.
For the compound `O=c1[nH]c2cc(/C=C3\c4ccc(F)cc4COc4cc(F)ccc43)ccc2n1CCCN1CCOCC1` [Example 26], the Ki is under 500 nM.
On to `O=c1[nH]c2cc(/C=C3\c4ccc(F)cc4COc4cc(F)ccc43)ccc2n1C1CCNCC1` [Example 28], for which the Ki is under 500 nM.
The compound `O=c1[nH]c2cc(/C=C3\c4ccc(F)cc4COc4cc(F)ccc43)ccc2n1[C@H]1CCNC1` [Example 29] came in with a Ki of under 500 nM.
Take `O=c1[nH]c2cc(/C=C3\c4ccc(F)cc4COc4cc(F)ccc43)ccc2n1C1CNC1` [Example 30]: the inhibition constant Ki is under 500 nM.
In the case of `O=c1[nH]c2cc(/C=C3\c4ccc(F)cc4COc4cc(F)ccc43)ccc2n1[C@@H]1CCNC1` [Example 31] it was under 500 nM.
In turn, `CN1CC[C@H](n2c(=O)[nH]c3cc(/C=C4\c5ccc(F)cc5COc5cc(F)ccc54)ccc32)C1` [Example 32] registered a Ki of under 500 nM.
The figure for `CCN1CC[C@H](n2c(=O)[nH]c3cc(/C=C4\c5ccc(F)cc5COc5cc(F)ccc54)ccc32)C1` [Example 33] is under 500 nM; for `CN1CCN(CCn2c(=O)[nH]c3cc(/C=C4/c5ccc(F)cc5OCc5c(F)cccc54)ccc32)CC1` [Example 34] it is under 500 nM.
In turn, `O=c1[nH]c2cc(/C=C3/c4ccc(F)cc4OCc4c(F)cccc43)ccc2n1CCN1CCCC1` [Example 35] had a Ki of under 1000 nM.
`O=c1[nH]c2cc(/C=C3/c4ccc(F)cc4OCc4c(F)cccc43)ccc2n1C1CCNCC1` [Example 36] returned an inhibitory constant (Ki) of under 500 nM.
In the case of `O=c1[nH]c2cc(/C=C3/c4ccc(F)cc4OCc4c(F)cccc43)ccc2n1[C@H]1CCNC1` [Example 37] it was under 500 nM.
`C[C@H](CN1CCOCC1)n1c(=O)[nH]c2cc(/C=C3/c4ccc(F)cc4OCc4c(F)cccc43)ccc21` [Example 38] yielded a Ki of under 500 nM.
In the case of `C[C@@H](CN1CCOCC1)n1c(=O)[nH]c2cc(/C=C3/c4ccc(F)cc4OCc4c(F)cccc43)ccc21` [Example 39] it was under 1000 nM; in that of `CC(C)(CN1CCOCC1)n1c(=O)[nH]c2cc(/C=C3/c4ccc(F)cc4OCc4c(F)cccc43)ccc21` [Example 40], under 1000 nM.
As to `C[C@@H]1CN(CCn2c(=O)[nH]c3cc(/C=C4/c5ccc(F)cc5OCc5c(F)cccc54)ccc32)C[C@H](C)O1` [Example 41], the Ki is under 500 nM.
In the case of `O=c1[nH]c2cc(/C=C3/c4ccc(F)cc4OCc4c(F)cccc43)ccc2n1CCCN1CCOCC1` [Example 42] it was under 500 nM; in that of `O=c1[nH]c2cc(/C=C3/c4ccc(F)cc4OCc4c(F)cccc43)ccc2n1CCN1CCNCC1` [Example 43], under 500 nM.
Turning to `CCN1CC[C@H](n2c(=O)[nH]c3cc(/C=C4/c5ccc(F)cc5OCc5c(F)cccc54)ccc32)C1` [Example 44], the Ki is under 1000 nM.
`CN1CC[C@H](n2c(=O)[nH]c3cc(/C=C4/c5ccc(F)cc5OCc5c(F)cccc54)ccc32)C1` [Example 45] gave a Ki of under 10000 nM.

These data come from US20070037788A1, “Tricyclic steroid hormone nuclear receptor modulators” (Eli Lilly and Company, priority 2003, published 2007).
